# From patent US6630321B1, “Method for identifying a compound that modulates the function of the gene product of an essential gene” (priority 1999, dated 2003)
# Numbered stars: 1 amine (or outer) side, 2 acyl side, 3 side chain; on linkers, the order of the positions; unused ones are H or OH. Square brackets hold non-standard residues; d marks the D form. Peptide text beside a SMILES is read from it. X1 = CC[C@@H](C)[C@@H](O[*:1])C(=O)[*:2]; NMeVal(β-OH) = CN[C@H](C(=O)O)C(C)(C)O; NMeF = CN[C@@H](Cc1ccccc1)C(=O)O; aIle = CC[C@@H](C)[C@H](N)C(=O)O; NMeV = CN[C@H](C(=O)O)C(C)C
# Columns and labels:
# [1] = system: GAL1-ERG1 strain; experiment: growth (optical density) hypersensitivity of GAL1-ERG1 strain after promoter switch-off, compared to wild type; assay type: cell-based, S. cerevisiae; details: GAL1 promoter switched OFF, FIG. 5
# Text: (§1) By “viable” we mean cells that have grown sufficiently so that when gene expression of an essential gene is turned off, meaningful measurements and kinetic analysis may be made. The cells are preferably allowed to grow into early stationary phase by which time a final optical density reading is taken. A reduced optical density compared to no drug or no switchoff controls is interpreted as growth inhibition.
# It follows that the hypersensitive reaction towards an inhibitor of one enzyme in a pathway may be extended to inhibitors of the whole pathway. This is due to the linear arrangement of enzymes in a biochemical cascade of reactions where one enzyme provides substrate for the next. A reduced substrate supply can act synergistically with a reduced enzyme level. Thus the activity of the almost rate-limiting enzyme Erg11p (after switchoff) will be reduced further by withdrawal of its substrate normally provided by Erg1p, squalene epoxidase, another enzyme of the sterol biosynthetic pathway, through several biochemical steps. Erg1p is now inhibited by terbinafine. Any such pathway specific hypersensitivity allows the categorisation of (uncategorised) genes into the same pathway as the switched off gene. To investigate this, we examined Erg1p. […] This pathway-specific analysis tool will be extremely useful for the classification of novel inhibitors (with unknown mode of action).
# [2] = molecular target: Erg11p, lanosterol C-14-demethylase (Saccharomyces cerevisiae, UniProt P10614); details: cited from earlier work
# Sequence of Erg11p, lanosterol C-14-demethylase (P10614 whole entry): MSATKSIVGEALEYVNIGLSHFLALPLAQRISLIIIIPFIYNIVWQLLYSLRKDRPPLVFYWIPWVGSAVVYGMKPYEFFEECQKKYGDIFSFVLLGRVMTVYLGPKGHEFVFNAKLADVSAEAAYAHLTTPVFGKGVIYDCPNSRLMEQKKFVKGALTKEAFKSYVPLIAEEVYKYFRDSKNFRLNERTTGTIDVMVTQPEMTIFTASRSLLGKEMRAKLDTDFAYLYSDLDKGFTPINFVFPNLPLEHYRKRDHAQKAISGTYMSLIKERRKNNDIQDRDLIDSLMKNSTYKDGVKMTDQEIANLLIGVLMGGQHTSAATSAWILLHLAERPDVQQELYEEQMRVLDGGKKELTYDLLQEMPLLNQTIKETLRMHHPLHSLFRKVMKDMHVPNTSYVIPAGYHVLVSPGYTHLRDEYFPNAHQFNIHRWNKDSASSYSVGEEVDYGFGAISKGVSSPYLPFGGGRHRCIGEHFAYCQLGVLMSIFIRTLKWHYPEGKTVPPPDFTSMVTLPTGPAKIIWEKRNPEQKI
# [3] = molecular target: Erg1p, squalene epoxidase (Saccharomyces cerevisiae, UniProt P32476); details: cited from earlier work
# Sequence of Erg1p, squalene epoxidase (P32476 whole entry): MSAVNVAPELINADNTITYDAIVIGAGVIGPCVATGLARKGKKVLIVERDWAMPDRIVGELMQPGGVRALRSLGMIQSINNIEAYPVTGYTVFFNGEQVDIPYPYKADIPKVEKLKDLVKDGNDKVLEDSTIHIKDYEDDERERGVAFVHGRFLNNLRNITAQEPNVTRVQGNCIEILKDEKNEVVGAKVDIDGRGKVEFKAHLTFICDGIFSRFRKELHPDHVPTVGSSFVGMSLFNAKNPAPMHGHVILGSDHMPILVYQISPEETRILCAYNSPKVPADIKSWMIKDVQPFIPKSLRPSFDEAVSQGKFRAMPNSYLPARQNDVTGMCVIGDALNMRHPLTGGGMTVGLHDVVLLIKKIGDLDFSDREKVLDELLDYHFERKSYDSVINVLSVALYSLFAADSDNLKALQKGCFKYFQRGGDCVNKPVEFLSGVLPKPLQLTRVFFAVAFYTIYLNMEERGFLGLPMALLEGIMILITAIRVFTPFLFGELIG
# [4] = system: GAL1-ERG11 strain; experiment: growth (optical density) hypersensitivity of GAL1-ERG11 strain after promoter switch-off, compared to wild type; assay type: cell-based, S. cerevisiae; details: GAL1 promoter switched OFF (galactose to glucose), final optical density vs wt
# Text: as §1
# (§2) However no reduction in growth will be observed as long as the amount of active Erg11p is high enough not to be rate limiting for growth (above the threshold, see FIG. 2) In our example the fluconazole concentration is insufficient to reduce Erg11p activity below this threshold. The situation for a GAL1-driven ERG11 gene is different however: At time 0 the gene's engineered promoter is switched from the ON state (because of the high expression of a GAL1 promoter this level is usually higher than for the native promoter) to the OFF state by changing the carbon source in the culture. From this timepoint on no new mRNA is transcribed and—after decay of the mRNA—no new Erg11 protein is being synthesized. Erg11 concentrations are now falling due to the dilution of the enzyme into new daughter cells and protein decay of Erg11p. […] This is reflected by a lower final optical density of the culture. […] Therefore the threshold-line is crossed earlier, as no new Erg11p can be synthesized. Compared to the wild-type cell, this is seen as hypersensitivity (larger reduction in growth in the presence of an identical concentration of drug). Simplified one can explain this as a reduced amount of cell-doublings before rate-limiting conditions occur.
# For target and compound evaluation the hypersensitivity has to be specific for certain drug-target combinations. Therfore the method was tested and validated with another unrelated known drug-target combination: The AUR1 gene encodes inositolphosphorylceramide (IPC) synthase, an essential enzyme of the fungal sphingolipid biosynthetic pathway (Nagiec et al, J.Biol.Chem., 1997, 272,15, 9809-9817). […]
# [5] = system: GAL1-AUR1 strain; experiment: growth (optical density) hypersensitivity of GAL1-AUR1 strain after promoter switch-off, compared to wild type; assay type: cell-based, S. cerevisiae; details: GAL1 promoter switched OFF (galactose to glucose), final optical density vs wt
# Text: as §1
# as §2, with “Compared to the wild-type cell, this is seen as hypersensitivity (larger reduction in growth in the presence of an identical concentration of drug). Simplified one can explain this as a reduced amount of cell-doublings before rate-limiting conditions occur.” left out
# [6] = molecular target: T1, inositolphosphorylceramide (IPC) synthase (AUR1) (Saccharomyces cerevisiae, UniProt P36107); details: cited from earlier work
# T1 sequence (P36107 1-401): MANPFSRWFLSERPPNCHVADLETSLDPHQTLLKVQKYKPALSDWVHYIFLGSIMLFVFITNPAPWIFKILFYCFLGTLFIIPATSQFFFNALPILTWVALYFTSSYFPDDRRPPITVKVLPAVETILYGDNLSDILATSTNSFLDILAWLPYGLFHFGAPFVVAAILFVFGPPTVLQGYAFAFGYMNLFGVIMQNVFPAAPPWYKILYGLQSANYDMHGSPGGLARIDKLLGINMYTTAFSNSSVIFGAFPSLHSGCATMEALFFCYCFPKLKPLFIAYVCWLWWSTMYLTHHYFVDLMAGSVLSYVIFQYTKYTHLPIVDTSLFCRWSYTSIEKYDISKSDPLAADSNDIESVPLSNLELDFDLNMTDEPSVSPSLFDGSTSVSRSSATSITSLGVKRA
# T1 sequence (Q06346 1-221 partner): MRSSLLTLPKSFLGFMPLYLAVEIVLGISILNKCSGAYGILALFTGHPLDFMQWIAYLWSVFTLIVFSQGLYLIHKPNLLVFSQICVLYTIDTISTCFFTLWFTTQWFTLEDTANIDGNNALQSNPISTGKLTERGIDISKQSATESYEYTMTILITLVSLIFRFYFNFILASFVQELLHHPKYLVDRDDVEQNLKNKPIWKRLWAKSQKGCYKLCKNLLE
smiles,measurement,setting,value
CN(C/C=C/C#CC(C)(C)C)Cc1cccc2ccccc12 [terbinafine],hypersensitivity (larger reduction in growth than wild type at identical drug concentration),[1],hypersuscepible
same,enzyme inhibition,[2],Erg11p is not
same,enzyme inhibition,[3],inhibited
same,hypersensitivity (larger reduction in growth than wild type at identical drug concentration),[4],as hypersuscepible to terbinafine as GAL1-ERG1
OC(Cn1cncn1)(Cn1cncn1)c1ccc(F)cc1F [fluconazole],enzyme inhibition,[2],inhibits Erg11p
same,hypersensitivity (larger reduction in growth than wild type at identical drug concentration),[5],neither did GAL1-AUR1 show hypersensitivity
same,hypersensitivity (larger reduction in growth than wild type at identical drug concentration),[4],prominent hypersensitive response
CC[C@@H](C)[C@@H]1NC(=O)[C@@H]2CCCN2C(=O)[C@H](Cc2ccccc2)N(C)C(=O)[C@H](Cc2ccccc2)NC(=O)[C@H](C(C)C)N(C)C(=O)[C@@H]([C@H](C)CC)OC(=O)[C@H](C(C)(C)O)N(C)C(=O)[C@H](CC(C)C)NC(=O)[C@H](C(C)C)N(C)C1=O [aureobasidinA] (cyclo(F[NMeF]P[aIle][NMeV]L[NMeVal(β-OH)][X1][NMeV])),hypersensitivity (larger reduction in growth than wild type at identical drug concentration),[5],prominent hypersensitive response
same,potency of enzyme inhibition,[6],sub nanomolar potency
same,hypersensitivity (larger reduction in growth than wild type at identical drug concentration),[4],no increased sensitivity
